Results published in ChEMBL document CHEMBL3632472, “Bastadins, brominated-tyrosine derivatives, suppress accumulation of cholesterol ester in macrophages” (Bioorg Med Chem Lett, 2015).
Calls of active or inactive are those of the source. The rule behind the calls is not given here.

Columns and labels:
MDM [1] = assay: Inhibition of ACAT in human MDM cells assessed as inhibition of foam cell formation by measuring acetylated LDL-induced [3H]cholesterol ester accumulation at 5 uM after 24 hrs in presence of 0.1 mM [3H]oleate; format: cell-based
[2] = biological target: T1, Sterol O-acyltransferase 1 (Homo sapiens) (UniProt P35610); assay: Inhibition of human ACAT1 expressed in CHO cells at 5 uM using [14C]oleoyl-CoA as substrate; format: cell-based
T1 sequence (whole entry): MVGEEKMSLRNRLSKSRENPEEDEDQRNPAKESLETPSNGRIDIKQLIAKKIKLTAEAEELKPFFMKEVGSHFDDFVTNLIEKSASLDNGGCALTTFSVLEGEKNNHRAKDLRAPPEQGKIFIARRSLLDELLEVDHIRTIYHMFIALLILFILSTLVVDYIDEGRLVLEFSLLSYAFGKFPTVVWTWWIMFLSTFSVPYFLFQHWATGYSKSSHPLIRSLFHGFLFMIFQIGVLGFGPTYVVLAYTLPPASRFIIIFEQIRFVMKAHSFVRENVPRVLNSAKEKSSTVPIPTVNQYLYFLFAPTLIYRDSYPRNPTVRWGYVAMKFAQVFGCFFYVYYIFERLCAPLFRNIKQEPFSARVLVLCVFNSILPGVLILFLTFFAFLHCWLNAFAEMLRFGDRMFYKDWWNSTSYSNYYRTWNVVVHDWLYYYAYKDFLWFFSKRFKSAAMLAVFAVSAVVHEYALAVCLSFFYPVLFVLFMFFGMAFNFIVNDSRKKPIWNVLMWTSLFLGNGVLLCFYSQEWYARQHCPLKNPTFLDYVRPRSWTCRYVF

[3] = biological target: T1, Sterol O-acyltransferase 1 (Homo sapiens); assay: Inhibition of human ACAT1 expressed in CHO cells assessed as inhibition of [3H]cholesterol ester accumulation at 5 uM in presence of 0.1 mM [3H]oleate-conjugated BSA; format: cell-based
[4] = Cytotoxicity against human MDM cells at 5 uM after 24 hrs; format: cell-based
[5] = biological target: T2, Sterol O-acyltransferase 2 (Homo sapiens) (UniProt O75908); assay: Inhibition of human ACAT2 expressed in CHO cells assessed as inhibition of [3H]cholesterol ester accumulation at 5 uM in presence of 0.1 mM [3H]oleate-conjugated BSA; format: cell-based
T2 sequence (whole entry): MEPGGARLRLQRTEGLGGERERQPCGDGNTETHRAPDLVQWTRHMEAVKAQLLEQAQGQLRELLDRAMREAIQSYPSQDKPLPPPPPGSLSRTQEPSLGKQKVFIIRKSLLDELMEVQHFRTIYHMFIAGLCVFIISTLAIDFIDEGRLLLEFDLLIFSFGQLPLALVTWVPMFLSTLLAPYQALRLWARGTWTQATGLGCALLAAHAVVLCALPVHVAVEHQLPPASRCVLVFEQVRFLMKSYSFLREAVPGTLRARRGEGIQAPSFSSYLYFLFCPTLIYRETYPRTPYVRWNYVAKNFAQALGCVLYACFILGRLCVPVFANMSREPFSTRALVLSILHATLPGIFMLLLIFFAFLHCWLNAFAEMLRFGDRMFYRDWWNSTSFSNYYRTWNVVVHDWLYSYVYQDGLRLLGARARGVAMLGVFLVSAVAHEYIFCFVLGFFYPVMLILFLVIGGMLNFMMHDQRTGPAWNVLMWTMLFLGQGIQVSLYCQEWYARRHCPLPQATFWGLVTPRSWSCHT

[6] = biological target: T2, Sterol O-acyltransferase 2 (Homo sapiens); assay: Inhibition of human ACAT2 expressed in CHO cells at 5 uM using [14C]oleoyl-CoA as substrate; format: cell-based
MDM [7] = assay: Effect on CD36 expression in human MDM cells at 5 uM for 24 hrs by western blot analysis; format: functional, cell-based
MDM [8] = assay: Effect on ACAT1 expression in human MDM cells at 5 uM for 24 hrs by western blot analysis; format: functional, cell-based
MDM [9] = assay: Effect on triacylglycerol accumulation in human MDM cells at 5 uM after 24 hrs in presence of 50 ug/ml acetylated LDL and 0.1 mM [3H]oleate; format: functional, cell-based
CHO = assay: Cytotoxicity against CHO cells at 5 uM; format: cell-based, Cricetulus griseus; settings: chinese hamster
MDM [10] = assay: Inhibition of human ACAT in MDM cells microsomal fraction assessed as inhibition of cholesteryl [14C]oleate formation at 5 uM for 15 mins in presence of [14C]oleoyl-CoA; format: cell-based
MDM [11] = assay: Effect on SR-BI expression in human MDM cells at 5 uM for 24 hrs by western blot analysis; format: functional, cell-based
MDM [12] = assay: Effect on ACAT2 expression in human MDM cells at 5 uM for 24 hrs by western blot analysis; format: functional, cell-based
MDM [13] = assay: Effect on phospholipid accumulation in human MDM cells at 5 uM after 24 hrs in presence of 50 ug/ml acetylated LDL and 0.1 mM [3H]oleate; format: functional, cell-based
MDM [14] = assay: Effect on SR-A expression in human MDM cells at 5 uM for 24 hrs by western blot analysis; format: functional, cell-based

| Structure (SMILES) | inhibition [2] | inhibition [3] | inhibition [5] | inhibition [6] | inhibition (MDM [1]) | Activity [4] | Activity (MDM [7]) | Activity (MDM [8]) | Activity (MDM [9]) | Activity (CHO) | inhibition (MDM [10]) | Activity (MDM [11]) | Activity (MDM [12]) | Activity (MDM [13]) | Activity (MDM [14]) |
| --- | --- | --- | --- | --- | --- | --- | --- | --- | --- | --- | --- | --- | --- | --- | --- |
| O=C1N/C=C/c2ccc(c(Br)c2)Oc2cc(cc(Br)c2O)CCNC(=O)/C(=N/O)Cc2cc(Br)c(c(Br)c2)Oc2cc(cc(Br)c2O)C/C1=N\O [BASTADIN 4] |  | inactive | inactive |  | 36% | Non-toxic |  |  |  |  |  |  |  |  |  |
| O=C1NCCc2cc(Br)c(O)c(c2)Oc2ccc(cc2Br)CCNC(=O)/C(=N\O)Cc2cc(Br)c(O)c(c2)Oc2c(Br)cc(cc2Br)C/C1=N/O [BASTADIN 5] |  | inactive | inactive |  | 58% | Non-toxic |  |  |  |  |  |  |  |  |  |
| O=C1NCCc2cc(Br)c(O)c(c2)Oc2c(Br)cc(cc2Br)CCNC(=O)/C(=N/O)Cc2cc(Br)c(O)c(c2)Oc2c(Br)cc(cc2Br)C/C1=N\O [BASTADIN 6] | 82% | 86% | 87% | 89% | 96% | Non-toxic | inactive | inactive | inactive | Non-toxic | Active | inactive | inactive | inactive | inactive |
| O=C1N/C=C/c2ccc(c(Br)c2)Oc2cc(cc(Br)c2O)CCNC(=O)/C(=N/O)Cc2ccc(c(Br)c2)Oc2cc(cc(Br)c2O)C/C1=N\O [BASTADIN 7] |  | inactive | inactive |  | 39% | Non-toxic |  |  |  |  |  |  |  |  |  |
| O=C(NCCc1ccc(O)c(Br)c1)/C(Cc1ccc(O)c(Br)c1)=N\O [HEMIBASTADIN 1] |  | inactive | inactive |  | 5% | Non-toxic |  |  |  |  |  |  |  |  |  |

Second part, led by results:

| inhibition [2] | inhibition [3] | inhibition [5] | inhibition [6] | Structure (SMILES) | inhibition (MDM [1]) | Activity [4] | Activity (MDM [7]) | Activity (MDM [8]) | Activity (MDM [9]) | Activity (CHO) | inhibition (MDM [10]) | Activity (MDM [11]) | Activity (MDM [12]) | Activity (MDM [13]) | Activity (MDM [14]) |
| --- | --- | --- | --- | --- | --- | --- | --- | --- | --- | --- | --- | --- | --- | --- | --- |
| inactive | inactive | inactive | inactive | O=C1NCCc2ccc(O)c(c2)Oc2ccc(cc2Br)CCNC(=O)/C(=N/O)Cc2cc(Br)c(O)c(c2)Oc2c(Br)cc(cc2Br)C/C1=N\O | 80% | Non-toxic |  |  |  |  |  |  |  |  |  |
| inactive | inactive | inactive | inactive | O=C1NCCc2cc(Br)c(O)c(c2)Oc2c(Br)cc(cc2Br)[C@H](O)CNC(=O)/C(=N/O)Cc2cc(Br)c(O)c(c2)Oc2ccc(cc2Br)C/C1=N\O [BASTADIN 12] | 80% | Non-toxic |  |  |  |  |  |  |  |  |  |
| 61% | 57% | 61% | 58% | O=C1NCCc2ccc(O)c(c2)Oc2c(Br)cc(cc2Br)CCNC(=O)/C(=N/O)Cc2cc(Br)c(O)c(c2)Oc2c(Br)cc(cc2Br)C/C1=N\O [BASTADIN 16] | 88% | Non-toxic |  |  | inactive | Non-toxic |  |  |  | inactive |  |
